Data as given in patent US7456170B2, “Triazolobenzodiazepines and their use as vasopressin antagonists” (Pfizer Inc., priority 2004, dated 2008).
Read-outs that look alike come from different tables or passages of the source.

Molecular target: human V1A receptor (Homo sapiens, UniProt P37288)
Test: V1A filter binding assay ([3H]-AVP binding to CHO-hV1A membranes)
Procedure: 1.0 V1A Filter Binding Assay
Receptor binding assays were performed on cellular membranes prepared from CHO cells stably expressing the human V1A receptor, (CHO-hV1A). The CHO-hV1A cell line was kindly provided under a licensing agreement by Marc Thibonnier, Dept. of Medicine, Case Western Reserve University School of Medicine, Cleveland, Ohio, CHO-hV1A cells were routinely maintained at 37° C. in humidified atmosphere with 5% CO2 in DMEM/Hams F12 nutrient mix supplemented with 10% fetal bovine serum, 2 mM L-glutamine, 15 mM HEPES and 400 μg/ml G418. For bulk production of cell pellets, adherent CHO-hV1A cells were grown to confluency of 90-100% in 850 cm^2 roller bottles containing a medium of DMEM/Hams F12 Nutrient Mix supplemented with 10% fetal bovine serum, 2 mM L-gitidtamine and 15 mM HEPES. Confluent CHO-hV1A cells were washed with phosphate-buffered saline (PBS), harvested into ice cold PBS and centrifuged at 1,000 rpm. Cell pellets were stored at −80° C. until use. […] Protein concentration was determined using Bradford reagent and BSA as a standard.
Protein linearity followed by saturation binding studies were performed on each new batch of membrane. […] Saturation binding studies were then performed using various concentrations of [^3H]-arginine vasopressin, [^3]-AVP (0.05 nM-100 nM) and the Kd and Bmax determined.
Compounds were tested for their effects on [^3H]-AVP binding to CHO-hV1A membranes, (^3H-AVP; specific activity 65.5 Ci/mmol: NEN Life Sciences). […] The plates were sealed and counted on a TopCount Microplate Scintillation Counter (Packard Instruments). Non-specific binding (NSB) was determined using 1 μM unlabelled d(CH2)5Tyr(Me)AVP ([β-mercapto-β,β-cyclopentamethylenepropionyl,0-Me-Tyr^2,Arg^8]-vasopressin) (βMCPVP), (Sigma). The radioligand binding data was analysed using a four parameter logistic equation with the min forced to 0%. […] Specific binding was calculated by subtracting the mean NSB cpm from the mean Total cpm. For test compounds the amount of ligand bound to the receptor was expressed as % bound=(sample cpm−mean NSB cpm)/specific binding cpm×100. […]

[1] = [3H]-AVP binding to CHO-hV1A membranes, screen 1.0, read-out: Ki

Chain of human V1A receptor (P37288 whole entry): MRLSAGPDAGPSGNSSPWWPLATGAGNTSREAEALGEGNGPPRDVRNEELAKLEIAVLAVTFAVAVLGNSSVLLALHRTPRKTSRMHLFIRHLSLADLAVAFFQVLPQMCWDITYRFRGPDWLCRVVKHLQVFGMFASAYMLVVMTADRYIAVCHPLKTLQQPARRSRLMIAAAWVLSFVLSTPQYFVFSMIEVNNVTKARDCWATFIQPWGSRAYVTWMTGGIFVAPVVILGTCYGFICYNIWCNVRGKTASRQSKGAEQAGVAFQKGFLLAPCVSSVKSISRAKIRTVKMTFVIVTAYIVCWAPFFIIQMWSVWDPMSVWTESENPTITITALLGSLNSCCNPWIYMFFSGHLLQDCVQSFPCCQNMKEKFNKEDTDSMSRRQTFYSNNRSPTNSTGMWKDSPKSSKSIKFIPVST

SMILES	Ki [1]	Ki
CN(C)S(=O)(=O)N1Cc2cc(Cl)ccc2-n2c(nnc2N2CCC(c3ccccc3)CC2)C1 [Example 8, 8-Chloro-N,N-dimethyl-1-(4-phenylpiperidin-1-yl)-4H-[1,2,4]triazolo[4,3-a][1,4]benzodiazepine-5(6H)-sulphonamide]	0.36 nM	
CS(=O)(=O)N1Cc2cc(Cl)ccc2-n2c(nnc2N2CCC(c3ccccc3)CC2)C1 [Example 6, 8-Chloro-5-(methylsulfonyl)-1-(4-phenylpiperidin-1-yl)-5,6-dihydro-4H-[1,2,4]triazolo[4,3-a][1,4]benzodiazepine]	0.17 nM	
CS(=O)(=O)N1Cc2cc(Cl)ccc2-n2c(nnc2N2CCC(c3ccccn3)CC2)C1 [Example 3, 8-Chloro-5-(methylsulfonyl)-1-(4-pyridin-2-ylpiperidin-1-yl)-5,6-dihydro-4H-[1,2,4]triazolo[4,3-a][1,4]benzodiazepine]		0.62 nM
